Several values for one entry are separate records, joined by “and”; a condition that tells them apart may be missing. Equal values may be shown once. Read-outs that look alike come from different tables or passages of the source.
Key:
SK1 isolate of HIV-1 = conditions: for p24 VALUES, single samples: samples 1-3; for IC50 (inhibition of cell-cell transmission): linear regression
From the text: (§1) ME180 cells, a cervical epithelial cell line, were obtained from the American Type Culture Collection. These cells were thawed from liquid nitrogen and grown in RPMI 1640 medium supplemented with 10t fetal bovine serum, glutamine and antibiotics. The cells were adherent and were trypsinized (0.5% trypsin in HBSS) to remove them from the flask for passaging and use in assays. For use in the microtiter transmission inhibition assay, ME180 cells were trypsinized, washed and seeded in 96-well flat bottom microtiter plates (COSTAR) at a density of 5×10^3 cells per well. The cells were incubated at 37° C. for 24 hours prior to the tart of the assay. H9 cells chronically infected with he SK1 isolate of HIV-1 were treated with 200 μg/ml mitomycin C for 60 minutes at 37° C. After treatment the cells were washed three times with tissue culture medium. The chronically infected lymphocytes were added to each well at a density of 2×10^4 cells per well. The concentration of mitomycin C used in the treatment of the lymphocytes was chosen to allow lymphocyte survival for the period of time required to transmit virus to the uninfected ME180 cells, but to die prior to the time of assay so as not to contribute to the p24 signal used as the endpoint (see below). In the transmission assay the lytic peptides D4E1 and D2A21, with and without 150 μg/ml pig mucin, were added prior to the addition of chronically infected cells or were mixed with the chronically infected cells prior to their addition to the monolayer of ME180 cells. Mucin was included because it is an abundant constituent of the normal vaginal secretions of a human being, thus any chemotherapeutic agent targeting HIV should be active in its presence if it is to have clinical value. […] The lymphocytes and peptide were co-cultured with the ME180 cells for 6 hours and then removed by washing the ME180 monolayer four times with PBS. The plate was then incubated at 37° C. for six days. Medium was removed and changed every 48 hours during the incubation stage. No further peptide was added after the initial dose. At six days post-co-cultivation, the supernatant was removed from the wells and evaluated for the quantity of p24 antigen by ELISA. The ELISA was performed according to the manufacturer's recommendations. The amount of virus production in wells treated with various concentrations of the peptides was evaluated with appropriate cell and virus controls. Data are reported as a percent of virus control at each drug concentration. Linear regression analysis was used to calculate the […] and IC95 concentrations of the transmission inhibitor. […] TI represents the toxicity index, which is the ratio of the TC50/IC50, and is an indication of the relative concentrations window that exists between efficacy and toxicity.

ME180 cells = test: toxicity (XTT) in transmission inhibition assay; conditions: for TOXICITY VALUES (XTT), single samples: samples 1-3; for TC50 (concentration at which 50% of cells are eliminated): interpolation from % CC
From the text: as §1

[1] = 0.32 μg/ml, with 150 μg/ml pig mucin
[2] = 1 μg/ml, with 150 μg/ml pig mucin
[3] = 3.2 μg/ml, with 150 μg/ml pig mucin
[4] = 10 μg/ml, with 150 μg/ml pig mucin
[5] = 32 μg/ml, with 150 μg/ml pig mucin
[6] = 100 μg/ml, with 150 μg/ml pig mucin

Substance: dextran sulfate
- % VC (p24, percent of virus control) (SK1 isolate of HIV-1; 0.32 μg/ml, no mucin): 5.9%
- p24 VALUES, MEAN (SK1 isolate of HIV-1; 0.32 μg/ml, no mucin): 3.2 µg/mL
- % VC (p24, percent of virus control) (SK1 isolate of HIV-1; [1]): 7.7%
- p24 VALUES, MEAN (SK1 isolate of HIV-1; [1]): 4.5 µg/mL
- p24 VALUES, single samples (SK1 isolate of HIV-1; [1]): 5.0 µg/mL and 3.2 µg/mL and 6.1 µg/mL
- % VC (p24, percent of virus control) (SK1 isolate of HIV-1; 1 μg/ml, no mucin): 7.6%
- p24 VALUES, MEAN (SK1 isolate of HIV-1; 1 μg/ml, no mucin): 4.1 µg/mL
- % VC (p24, percent of virus control) (SK1 isolate of HIV-1; [2]): 7.8%
- p24 VALUES, MEAN (SK1 isolate of HIV-1; [2]): 4.9 µg/mL
- % VC (p24, percent of virus control) (SK1 isolate of HIV-1; 3.2 μg/ml, no mucin): 0.0%
- p24 VALUES, MEAN (SK1 isolate of HIV-1; 3.2 μg/ml, no mucin): 0.0 µg/mL
- p24 VALUES, single samples (SK1 isolate of HIV-1; 3.2 μg/ml, no mucin): 0.0 µg/mL
- % VC (p24, percent of virus control) (SK1 isolate of HIV-1; [3]): 11.4%
- p24 VALUES, MEAN (SK1 isolate of HIV-1; [3]): 7.1 µg/mL
- % VC (p24, percent of virus control) (SK1 isolate of HIV-1; 10 μg/ml, no mucin): 0.2%
- p24 VALUES, MEAN (SK1 isolate of HIV-1; 10 μg/ml, no mucin): 0.0 µg/mL
- % VC (p24, percent of virus control) (SK1 isolate of HIV-1; [4]): 11.6%
- p24 VALUES, MEAN (SK1 isolate of HIV-1; [4]): 7.2 µg/mL
- % VC (p24, percent of virus control) (SK1 isolate of HIV-1; 32 μg/ml, no mucin): 0.0%
- p24 VALUES, MEAN (SK1 isolate of HIV-1; 32 μg/ml, no mucin): 0.0 µg/mL
- p24 VALUES, single samples (SK1 isolate of HIV-1; 32 μg/ml, no mucin): 0.0 µg/mL
- % VC (p24, percent of virus control) (SK1 isolate of HIV-1; [5]): 14.6%
- p24 VALUES, MEAN (SK1 isolate of HIV-1; [5]): 9.0 µg/mL
- % VC (p24, percent of virus control) (SK1 isolate of HIV-1; 100 μg/ml, no mucin): 0.0%
- p24 VALUES, MEAN (SK1 isolate of HIV-1; 100 μg/ml, no mucin): 0.0 µg/mL
- p24 VALUES, single samples (SK1 isolate of HIV-1; 100 μg/ml, no mucin): 0.0 µg/mL
- % VC (p24, percent of virus control) (SK1 isolate of HIV-1; [6]): 8.0%
- p24 VALUES, MEAN (SK1 isolate of HIV-1; [6]): 4.9 µg/mL
- IC50 (inhibition of cell-cell transmission) (SK1 isolate of HIV-1; no mucin): IC50 = 0.002 μg/ml
- IC50 (inhibition of cell-cell transmission) (SK1 isolate of HIV-1; with 150 μg/ml pig mucin): IC50 = 0.002 μg/ml
- % CC (XTT, percent of cell control) (ME180 cells; 0.32 μg/ml, no mucin): 95.4%
- TOXICITY VALUES (XTT), MEAN (ME180 cells; 0.32 μg/ml, no mucin): 0.485 O.D. @ 450/650 nm
- TOXICITY VALUES (XTT), single samples (ME180 cells; 0.32 μg/ml, no mucin): 0.477 O.D. @ 450/650 nm and 0.473 O.D. @ 450/650 nm and 0.504 O.D. @ 450/650 nm
- % CC (XTT, percent of cell control) (ME180 cells; [1]): 95.4%
- TOXICITY VALUES (XTT), MEAN (ME180 cells; [1]): 0.485 O.D. @ 450/650 nm
- TOXICITY VALUES (XTT), single samples (ME180 cells; [1]): 0.477 O.D. @ 450/650 nm and 0.473 O.D. @ 450/650 nm and 0.504 O.D. @ 450/650 nm
- % CC (XTT, percent of cell control) (ME180 cells; 1 μg/ml, no mucin): 98.4%
- TOXICITY VALUES (XTT), MEAN (ME180 cells; 1 μg/ml, no mucin): 0.500 O.D. @ 450/650 nm
- TOXICITY VALUES (XTT), single samples (ME180 cells; 1 μg/ml, no mucin): 0.479 O.D. @ 450/650 nm and 0.519 O.D. @ 450/650 nm and 0.501 O.D. @ 450/650 nm
- % CC (XTT, percent of cell control) (ME180 cells; [2]): 98.4%
- TOXICITY VALUES (XTT), MEAN (ME180 cells; [2]): 0.500 O.D. @ 450/650 nm
- TOXICITY VALUES (XTT), single samples (ME180 cells; [2]): 0.479 O.D. @ 450/650 nm and 0.519 O.D. @ 450/650 nm and 0.501 O.D. @ 450/650 nm
- % CC (XTT, percent of cell control) (ME180 cells; 3.2 μg/ml, no mucin): 91.5%
- TOXICITY VALUES (XTT), MEAN (ME180 cells; 3.2 μg/ml, no mucin): 0.465 O.D. @ 450/650 nm
- TOXICITY VALUES (XTT), single samples (ME180 cells; 3.2 μg/ml, no mucin): 0.483 O.D. @ 450/650 nm and 0.456 O.D. @ 450/650 nm and 0.457 O.D. @ 450/650 nm
- % CC (XTT, percent of cell control) (ME180 cells; [3]): 91.6%
- TOXICITY VALUES (XTT), MEAN (ME180 cells; [3]): 0.465 O.D. @ 450/650 nm
- TOXICITY VALUES (XTT), single samples (ME180 cells; [3]): 0.483 O.D. @ 450/650 nm and 0.456 O.D. @ 450/650 nm and 0.457 O.D. @ 450/650 nm
- % CC (XTT, percent of cell control) (ME180 cells; 10 μg/ml, no mucin): 95.7%
- TOXICITY VALUES (XTT), MEAN (ME180 cells; 10 μg/ml, no mucin): 0.486 O.D. @ 450/650 nm
- TOXICITY VALUES (XTT), single samples (ME180 cells; 10 μg/ml, no mucin): 0.463 O.D. @ 450/650 nm and 0.499 O.D. @ 450/650 nm and 0.497 O.D. @ 450/650 nm
- % CC (XTT, percent of cell control) (ME180 cells; [4]): 95.7%
- TOXICITY VALUES (XTT), MEAN (ME180 cells; [4]): 0.486 O.D. @ 450/650 nm
- TOXICITY VALUES (XTT), single samples (ME180 cells; [4]): 0.463 O.D. @ 450/650 nm and 0.499 O.D. @ 450/650 nm and 0.497 O.D. @ 450/650 nm
- % CC (XTT, percent of cell control) (ME180 cells; 32 μg/ml, no mucin): 92.5%
- TOXICITY VALUES (XTT), MEAN (ME180 cells; 32 μg/ml, no mucin): 0.470 O.D. @ 450/650 nm
- TOXICITY VALUES (XTT), single samples (ME180 cells; 32 μg/ml, no mucin): 0.444 O.D. @ 450/650 nm and 0.466 O.D. @ 450/650 nm and 0.499 O.D. @ 450/650 nm
- % CC (XTT, percent of cell control) (ME180 cells; [5]): 92.5%
- TOXICITY VALUES (XTT), MEAN (ME180 cells; [5]): 0.470 O.D. @ 450/650 nm
- TOXICITY VALUES (XTT), single samples (ME180 cells; [5]): 0.444 O.D. @ 450/650 nm and 0.466 O.D. @ 450/650 nm and 0.499 O.D. @ 450/650 nm
- % CC (XTT, percent of cell control) (ME180 cells; 100 μg/ml, no mucin): 98.7%
- TOXICITY VALUES (XTT), MEAN (ME180 cells; 100 μg/ml, no mucin): 0.491 O.D. @ 450/650 nm
- TOXICITY VALUES (XTT), single samples (ME180 cells; 100 μg/ml, no mucin): 0.479 O.D. @ 450/650 nm and 0.500 O.D. @ 450/650 nm and 0.495 O.D. @ 450/650 nm
- % CC (XTT, percent of cell control) (ME180 cells; [6]): 98.7%
- TOXICITY VALUES (XTT), MEAN (ME180 cells; [6]): 0.491 O.D. @ 450/650 nm
- TOXICITY VALUES (XTT), single samples (ME180 cells; [6]): 0.479 O.D. @ 450/650 nm and 0.500 O.D. @ 450/650 nm and 0.495 O.D. @ 450/650 nm
- TC50 (concentration at which 50% of cells are eliminated) (ME180 cells; no mucin): TC50 = 1 μg/ml
- TC50 (concentration at which 50% of cells are eliminated) (ME180 cells; with 150 μg/ml pig mucin): TC50 = 1 μg/ml

Reference: patent US6514692B2, “Method for treatment of immunodeficiency virus infection” (priority 1996, dated 2003)
